Measured values: patent US20240139211A1, “METHODS AND COMPOSITIONS FOR TREATING AMYOTROPHIC LATERAL SCLEROSIS” (Amylyx Pharmaceuticals, Inc., priority 2022, published 2024)
Where two headings read alike, the source gives them in different places.

Experiments:
[1] = molecular target: P-gp (Homo sapiens, UniProt P08183); assay: Inhibitor of P-gp, 3H-digoxin efflux in Caco-2 cells; conditions: for potency estimated from few doses: read-out: Estimated IC50, P-gp
[2] = molecular target: OATP1B3 (Homo sapiens, UniProt Q9NPD5); assay: Substrate of OATP1B3, uptake in HEK293 cells
Excerpt: (§1) Vector-transfected HEK cells were used as a control.

[3] = test system: human hepatocytes; assay: Cytotoxicity of six test articles in hepatocyte cultures (MTS); conditions: for Concentrations at which not hepatotoxic: Donor 1, 72±2 hours
[4] = molecular target: T1, OCT2 (Homo sapiens, UniProt O15244); assay: Inhibitor of OCT2, probe substrate uptake; conditions: two concentrations per test article
T1 sequence (O15244 1-555): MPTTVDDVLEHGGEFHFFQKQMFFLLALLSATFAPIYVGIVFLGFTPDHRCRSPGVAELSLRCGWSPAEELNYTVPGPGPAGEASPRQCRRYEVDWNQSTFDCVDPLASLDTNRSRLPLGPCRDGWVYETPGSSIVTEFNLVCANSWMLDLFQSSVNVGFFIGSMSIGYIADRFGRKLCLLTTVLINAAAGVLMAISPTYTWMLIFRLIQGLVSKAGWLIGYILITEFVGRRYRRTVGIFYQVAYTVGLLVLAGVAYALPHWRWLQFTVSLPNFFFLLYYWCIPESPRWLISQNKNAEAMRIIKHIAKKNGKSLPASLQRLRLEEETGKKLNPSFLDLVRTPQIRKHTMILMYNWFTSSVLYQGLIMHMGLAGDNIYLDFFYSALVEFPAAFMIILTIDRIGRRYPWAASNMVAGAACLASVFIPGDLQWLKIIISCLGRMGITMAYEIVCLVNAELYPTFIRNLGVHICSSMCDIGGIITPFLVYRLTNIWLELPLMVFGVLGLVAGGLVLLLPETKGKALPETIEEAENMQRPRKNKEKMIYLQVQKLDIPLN

[5] = molecular target: T2, MATE2K (Homo sapiens, UniProt Q86VL8); assay: Substrate of MATE2-K, uptake in HEK293 cells
Excerpt: as §1

[6] = molecular target: T2, MATE2K; assay: Inhibitor of MATE2-K, probe substrate uptake; conditions: for potency estimated from few doses: read-out: Estimated IC50, MATE2-K; for Inhibition of MATE2-K / Inhibitor of MATE2-K: two concentrations per test article
[7] = test system: CYP1A2 mRNA; assay: CYP1A2 gene expression induction in hepatocyte cultures; conditions: gene expression and enzyme activity, three donors
[8] = test system: CYP3A4 mRNA; assay: CYP3A4 gene expression induction in hepatocyte cultures; conditions: gene expression and enzyme activity, three donors
[9] = molecular target: BSEP (Homo sapiens, UniProt O95342); assay: Substrate of BSEP; conditions: test article 1 and 10 μM
[10] = test system: Caco-2 cells; conditions: for Permeability in Caco-2 cell assay: 1 and 10 μM (tauroursodeoxycholic acid: 10 μM)
[11] = test system: CYP2B6 mRNA; assay: CYP2B6 gene expression induction in hepatocyte cultures; conditions: gene expression and enzyme activity, three donors
[12] = molecular target: T3, BCRP (Homo sapiens, UniProt Q9UNQ0); assay: Inhibitor of BCRP, 3H-estrone-3-sulfate efflux in Caco-2 cells
T3 sequence (Q9UNQ0 1-655): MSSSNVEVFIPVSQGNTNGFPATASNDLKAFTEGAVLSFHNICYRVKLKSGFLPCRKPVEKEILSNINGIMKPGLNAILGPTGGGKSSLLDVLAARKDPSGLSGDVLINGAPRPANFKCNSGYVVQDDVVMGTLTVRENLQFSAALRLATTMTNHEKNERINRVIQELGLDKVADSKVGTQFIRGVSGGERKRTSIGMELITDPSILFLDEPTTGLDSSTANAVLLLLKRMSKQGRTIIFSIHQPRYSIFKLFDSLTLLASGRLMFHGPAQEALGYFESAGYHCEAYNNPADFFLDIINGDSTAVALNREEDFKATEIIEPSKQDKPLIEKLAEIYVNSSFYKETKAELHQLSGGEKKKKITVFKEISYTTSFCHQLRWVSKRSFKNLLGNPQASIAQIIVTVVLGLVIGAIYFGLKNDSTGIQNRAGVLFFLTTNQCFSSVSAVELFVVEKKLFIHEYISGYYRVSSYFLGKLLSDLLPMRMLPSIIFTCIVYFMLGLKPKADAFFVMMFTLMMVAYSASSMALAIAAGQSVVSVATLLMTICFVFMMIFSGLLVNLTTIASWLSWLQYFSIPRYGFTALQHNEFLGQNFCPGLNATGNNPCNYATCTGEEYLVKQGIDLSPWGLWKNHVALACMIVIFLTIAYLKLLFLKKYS

[13] = Caco-2, two concentrations per test article
[14] = Caco-2, estimated from two doses
[15] = estimated from two concentrations, Caco-2 cells
[16] = two concentrations per test article, Caco-2 cells
[17] = estimated from two concentrations
[18] = higher test concentration (UDCA: second assay)
[19] = lower test concentration (UDCA: second assay)
[20] = 1 and 10 μM, transport buffer alone

P-gp, sequence (P08183 whole entry): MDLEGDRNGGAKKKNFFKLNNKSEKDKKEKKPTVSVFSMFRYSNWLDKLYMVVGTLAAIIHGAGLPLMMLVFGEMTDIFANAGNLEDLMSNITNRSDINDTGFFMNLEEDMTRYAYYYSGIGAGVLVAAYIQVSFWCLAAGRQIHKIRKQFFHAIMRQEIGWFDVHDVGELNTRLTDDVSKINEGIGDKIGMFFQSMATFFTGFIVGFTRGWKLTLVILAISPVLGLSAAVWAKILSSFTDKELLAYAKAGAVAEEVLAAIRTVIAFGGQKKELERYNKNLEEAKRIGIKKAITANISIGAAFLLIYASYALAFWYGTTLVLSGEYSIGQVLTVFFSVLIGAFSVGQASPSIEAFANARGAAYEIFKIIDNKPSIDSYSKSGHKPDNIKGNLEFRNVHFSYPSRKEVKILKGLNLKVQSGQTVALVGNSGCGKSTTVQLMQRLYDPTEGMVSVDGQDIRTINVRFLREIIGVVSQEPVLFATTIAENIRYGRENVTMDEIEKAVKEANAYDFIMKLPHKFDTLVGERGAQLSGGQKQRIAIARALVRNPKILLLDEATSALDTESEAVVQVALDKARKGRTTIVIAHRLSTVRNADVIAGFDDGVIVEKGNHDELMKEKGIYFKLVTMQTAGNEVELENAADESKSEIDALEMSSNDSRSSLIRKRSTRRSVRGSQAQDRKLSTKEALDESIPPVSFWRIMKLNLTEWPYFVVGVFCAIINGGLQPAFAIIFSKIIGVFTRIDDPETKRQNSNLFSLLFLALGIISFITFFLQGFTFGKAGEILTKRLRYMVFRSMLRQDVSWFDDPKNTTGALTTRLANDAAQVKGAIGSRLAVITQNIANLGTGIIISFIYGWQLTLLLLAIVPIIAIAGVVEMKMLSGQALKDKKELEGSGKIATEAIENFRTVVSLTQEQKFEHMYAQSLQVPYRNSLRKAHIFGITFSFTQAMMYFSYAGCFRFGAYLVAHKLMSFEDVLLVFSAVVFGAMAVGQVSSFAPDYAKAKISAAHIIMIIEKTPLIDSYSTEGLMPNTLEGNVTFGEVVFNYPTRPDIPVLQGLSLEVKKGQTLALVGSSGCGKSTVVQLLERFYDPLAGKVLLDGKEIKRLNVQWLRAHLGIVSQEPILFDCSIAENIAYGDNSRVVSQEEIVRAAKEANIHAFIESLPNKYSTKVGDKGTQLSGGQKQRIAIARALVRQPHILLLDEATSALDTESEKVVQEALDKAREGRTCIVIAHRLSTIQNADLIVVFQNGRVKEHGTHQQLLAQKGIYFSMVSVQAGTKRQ
T2 sequence (Q86VL8 1-566 isoform Q86VL8-3): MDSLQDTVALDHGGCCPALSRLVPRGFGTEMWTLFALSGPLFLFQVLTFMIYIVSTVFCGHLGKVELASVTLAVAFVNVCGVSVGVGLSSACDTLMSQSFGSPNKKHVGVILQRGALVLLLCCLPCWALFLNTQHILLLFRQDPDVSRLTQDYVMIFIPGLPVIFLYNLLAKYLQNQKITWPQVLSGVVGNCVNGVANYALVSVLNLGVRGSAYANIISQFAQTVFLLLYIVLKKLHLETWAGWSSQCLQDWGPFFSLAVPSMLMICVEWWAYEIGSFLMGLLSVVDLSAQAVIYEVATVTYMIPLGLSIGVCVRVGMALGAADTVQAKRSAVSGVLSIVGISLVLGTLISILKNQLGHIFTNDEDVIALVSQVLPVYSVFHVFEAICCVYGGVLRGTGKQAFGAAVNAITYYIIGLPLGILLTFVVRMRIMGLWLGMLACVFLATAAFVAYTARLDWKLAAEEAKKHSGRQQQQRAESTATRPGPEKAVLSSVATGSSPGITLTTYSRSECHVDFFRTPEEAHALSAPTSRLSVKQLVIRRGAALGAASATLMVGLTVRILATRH
OATP1B3, sequence (Q9NPD5 whole entry): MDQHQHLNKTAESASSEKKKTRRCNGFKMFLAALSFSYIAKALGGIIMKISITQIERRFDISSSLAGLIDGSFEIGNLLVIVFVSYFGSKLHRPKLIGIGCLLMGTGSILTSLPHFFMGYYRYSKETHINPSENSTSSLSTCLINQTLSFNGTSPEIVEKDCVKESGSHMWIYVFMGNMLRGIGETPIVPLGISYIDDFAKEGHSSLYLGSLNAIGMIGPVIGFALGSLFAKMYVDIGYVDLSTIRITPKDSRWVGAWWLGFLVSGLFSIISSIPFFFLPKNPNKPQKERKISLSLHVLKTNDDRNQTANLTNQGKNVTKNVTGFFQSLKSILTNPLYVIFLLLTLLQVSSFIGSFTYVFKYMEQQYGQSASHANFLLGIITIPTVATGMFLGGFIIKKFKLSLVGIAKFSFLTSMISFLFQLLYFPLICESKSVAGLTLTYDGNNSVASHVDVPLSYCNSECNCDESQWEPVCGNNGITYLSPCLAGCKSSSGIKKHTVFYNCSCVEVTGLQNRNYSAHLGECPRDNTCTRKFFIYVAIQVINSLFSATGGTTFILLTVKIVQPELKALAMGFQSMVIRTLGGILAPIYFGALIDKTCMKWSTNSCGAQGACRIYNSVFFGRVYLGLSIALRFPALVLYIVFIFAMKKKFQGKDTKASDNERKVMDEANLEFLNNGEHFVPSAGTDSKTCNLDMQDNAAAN
BSEP, sequence (O95342 whole entry): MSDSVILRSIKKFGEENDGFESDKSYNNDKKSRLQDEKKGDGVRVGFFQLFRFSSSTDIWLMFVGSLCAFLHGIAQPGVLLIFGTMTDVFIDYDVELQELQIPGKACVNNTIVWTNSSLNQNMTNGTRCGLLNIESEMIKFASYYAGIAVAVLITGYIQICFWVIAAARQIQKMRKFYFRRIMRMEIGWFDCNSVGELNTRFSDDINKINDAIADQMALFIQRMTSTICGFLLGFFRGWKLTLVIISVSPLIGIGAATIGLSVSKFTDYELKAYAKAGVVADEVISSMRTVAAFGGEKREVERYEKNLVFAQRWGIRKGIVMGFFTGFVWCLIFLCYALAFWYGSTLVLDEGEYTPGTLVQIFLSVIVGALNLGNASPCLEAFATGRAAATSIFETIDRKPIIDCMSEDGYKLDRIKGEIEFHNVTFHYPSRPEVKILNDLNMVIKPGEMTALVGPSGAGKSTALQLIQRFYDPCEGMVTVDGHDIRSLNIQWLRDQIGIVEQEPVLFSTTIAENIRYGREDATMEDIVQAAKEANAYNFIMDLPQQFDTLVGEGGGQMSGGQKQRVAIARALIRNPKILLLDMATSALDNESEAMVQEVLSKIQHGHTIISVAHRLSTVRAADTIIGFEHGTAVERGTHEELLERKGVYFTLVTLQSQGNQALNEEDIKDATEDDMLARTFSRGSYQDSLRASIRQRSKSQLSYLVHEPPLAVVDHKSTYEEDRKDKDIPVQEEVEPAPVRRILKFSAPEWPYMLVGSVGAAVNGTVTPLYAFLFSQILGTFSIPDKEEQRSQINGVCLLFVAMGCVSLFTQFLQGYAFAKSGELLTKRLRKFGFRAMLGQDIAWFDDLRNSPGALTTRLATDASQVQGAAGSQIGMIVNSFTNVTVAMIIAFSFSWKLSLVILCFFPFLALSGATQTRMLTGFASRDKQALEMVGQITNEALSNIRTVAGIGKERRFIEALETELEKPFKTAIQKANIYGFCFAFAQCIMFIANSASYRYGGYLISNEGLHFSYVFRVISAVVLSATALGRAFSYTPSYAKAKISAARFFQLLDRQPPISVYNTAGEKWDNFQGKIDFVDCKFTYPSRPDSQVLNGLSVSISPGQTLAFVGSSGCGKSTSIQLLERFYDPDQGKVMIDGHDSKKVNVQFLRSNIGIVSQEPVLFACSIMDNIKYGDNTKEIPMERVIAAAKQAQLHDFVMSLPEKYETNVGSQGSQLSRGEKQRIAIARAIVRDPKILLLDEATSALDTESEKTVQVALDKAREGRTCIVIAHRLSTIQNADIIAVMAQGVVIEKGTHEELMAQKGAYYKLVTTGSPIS

Substance: tauroursodeoxycholic acid [TUDCA]
- Inhibitor of P-gp [1, 13]: identified as an inhibitor
- Remaining P-gp activity, % of the control ([1]; higher test concentration): 57.3%
- Remaining P-gp activity, % of the control ([1]; lower test concentration): 78.8%
- potency estimated from few doses [1, 14]: > 50 µM
- potency estimated from few doses [1, 15]: > 50 µM
- Inhibitor of P-gp [1, 16]: Yes
- Uptake by OATP1B3 ([2]; 1 and 10 μM): 5.90 pmol/minute/mg protein
- Substrate of OATP1B3 ([2]; test article 1 and 10 μM): Yes
- Concentrations at which not hepatotoxic [3]: 550 µM
- Inhibition of OCT2 [4]: did not inhibit
- Inhibitor of OCT2 [4]: No
- Substrate of MATE2-K ([5]; 1 and 10 μM): not a substrate
- Substrate of MATE2-K ([5]; test article 1 and 10 μM): No
- Uptake activity remaining, MATE2-K ([6]; concentration not stated (5 and 50 μM tested)): 44.3%
- potency estimated from few doses [6, 17]: < 50 µM
- potency estimated from few doses ([6]; estimated from two doses): < 50 µM
- Inhibition of MATE2-K [6]: inhibited
- Inhibitor of MATE2-K [6]: Yes
- Inducer of CYP1A2 (conclusion) [7]: did not meet the classification requirements to be identified as an inducer
- Inducer of CYP3A4 (conclusion) [8]: did not meet the classification requirements to be identified as an inducer
- Substrate of BSEP [9]: Yes
- Papp basolateral to apical ([10]; 1 μM): 8.17 ×10⁻⁶ cm/s
- Papp apical to basolateral ([10]; 10 μM): 2.43 ×10⁻⁶ cm/s
- Papp basolateral to apical ([10]; 10 μM): 3.6 ×10⁻⁶ cm/s
- Permeability in Caco-2 cell assay [10]: moderate in both directions
- Inducer of CYP2B6 (conclusion) [11]: did not meet the classification requirements to be identified as an inducer
- Inhibitor of BCRP [12, 13]: not an inhibitor
- Remaining BCRP activity, % of the control [12, 18]: 92.3%
- Remaining BCRP activity, % of the control [12, 19]: 111%
- Inhibitor of BCRP [12, 16]: No

Substance: ursodeoxycholic acid
- Inhibitor of P-gp [1, 13]: identified as an inhibitor
- Remaining P-gp activity, % of the control ([1]; higher test concentration): 13.0%
- Remaining P-gp activity, % of the control ([1]; lower test concentration): 348%
- potency estimated from few doses [1, 14]: < 500 µM
- potency estimated from few doses [1, 15]: < 500 µM
- Inhibitor of P-gp [1, 16]: Yes^a
- Substrate of OATP1B3 ([2]; 1 and 10 μM): not a substrate
- Substrate of OATP1B3 ([2]; test article 1 and 10 μM): No
- Effect on cell viability ([3]; Donor 1, 500 μM): affected cell viability
- Concentrations at which not hepatotoxic [3]: ≤ 250 µM
- Inhibition of OCT2 [4]: did not inhibit
- Inhibitor of OCT2 [4]: No
- Substrate of MATE2-K ([5]; 1 and 10 μM): not a substrate
- Substrate of MATE2-K ([5]; test article 1 and 10 μM): No
- potency estimated from few doses [6, 17]: > 500 µM
- potency estimated from few doses ([6]; estimated from two doses): > 500 µM
- Inhibition of MATE2-K [6]: inhibited
- Inhibitor of MATE2-K [6]: Yes
- Apparent permeability in both directions ([10]; 1 and 10 μM): > 18 ×10⁻⁶ cm/s
- Permeability in Caco-2 cell assay [10]: high in both directions
- Papp apical to basolateral [10, 20]: ≥ 18.9 ×10⁻⁶ cm/s
- Papp basolateral to apical [10, 20]: ≥ 22.8 ×10⁻⁶ cm/s
- Inhibitor of BCRP [12, 13]: not an inhibitor
- BCRP activity, % of the control ([12]; first assay, 500 μM): 130%
- Remaining BCRP activity, % of the control [12, 18]: 155%
- Remaining BCRP activity, % of the control [12, 19]: 228%
- Inhibitor of BCRP [12, 16]: No
